Measurements as given in patent US20040248919A1, “Fluorinated trienes and their use as rxr modulators” (priority 2001, published 2004).

How the values were obtained:
RARβ = target: T1, RARβ (Homo sapiens, UniProt P10826); test: RAR binding, competition with tritiated retinoid; conditions: read-out: RAR Binding beta
T1 sequence (P10826 1-455): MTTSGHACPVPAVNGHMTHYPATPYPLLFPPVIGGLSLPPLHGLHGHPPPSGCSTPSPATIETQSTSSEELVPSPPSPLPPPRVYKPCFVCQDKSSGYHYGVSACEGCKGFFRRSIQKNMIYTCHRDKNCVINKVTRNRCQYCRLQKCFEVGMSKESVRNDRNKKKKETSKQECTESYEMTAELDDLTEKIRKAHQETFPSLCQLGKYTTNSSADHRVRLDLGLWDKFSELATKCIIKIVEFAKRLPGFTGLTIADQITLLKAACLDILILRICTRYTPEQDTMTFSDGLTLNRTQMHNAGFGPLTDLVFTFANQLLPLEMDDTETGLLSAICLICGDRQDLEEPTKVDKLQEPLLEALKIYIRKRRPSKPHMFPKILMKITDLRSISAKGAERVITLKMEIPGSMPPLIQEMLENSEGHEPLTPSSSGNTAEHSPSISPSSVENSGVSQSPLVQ
Text: (§1) In addition to the cotransfection data, the binding of selected compounds of the present invention to the RAR and RXR receptors was also investigated according to the methodology described in M. F., Boehm, et al., “Synthesis and Structure-Activity Relation-ships of Novel Retinoid X Receptor Selective Retinoids”, 37 J. Med. Chem., 2930 (1994); M. F. Boehm, et al., “Synthesis of High Specific Activity [^3H]-9-cis Retinoic Acid and Its Application for Identifying Retinoids with Unusual Binding Properties”, 37 J. Med. Chem., 408 (1994), and E. A. Allegretto, et al., “Characterization and Comparison of Hormone-Binding and Transactivation Properties of Retinoic Acid and Retinoid X Receptors Expressed in Mammalian Cells and Yeast”, 268 J. Biol. Chem., 22625 (1993), the disclosures of which are herein incorporated by reference.
(§2) Non-specific binding was defined as that binding remaining in the presence of 500 nM of the appropriate unlabelled compound. At the end of the incubation period, bound ligand was separated from free. The amount of bound tritiated retinoid was determined by liquid scintillation counting of an aliquot (700 μL) of the supernatant fluid or the hydroxylapatite pellet.
(§3) After correcting for non-specific binding, IC50 values were determined. The IC50 value is defined as the concentration of competing ligand needed to reduce specific binding by 50%. The IC50 value was determined graphically from a log-logit plot of the data. The Ki values were determined by application of the Cheng-Prussof equation to the IC50 values, the labeled ligand concentration and the Kd of the labeled ligand.

RARγ = target: T2, RARγ (Homo sapiens, UniProt P13631); test: RAR binding, competition with tritiated retinoid; conditions: read-out: RAR Binding gamma
T2 sequence (P13631 1-454): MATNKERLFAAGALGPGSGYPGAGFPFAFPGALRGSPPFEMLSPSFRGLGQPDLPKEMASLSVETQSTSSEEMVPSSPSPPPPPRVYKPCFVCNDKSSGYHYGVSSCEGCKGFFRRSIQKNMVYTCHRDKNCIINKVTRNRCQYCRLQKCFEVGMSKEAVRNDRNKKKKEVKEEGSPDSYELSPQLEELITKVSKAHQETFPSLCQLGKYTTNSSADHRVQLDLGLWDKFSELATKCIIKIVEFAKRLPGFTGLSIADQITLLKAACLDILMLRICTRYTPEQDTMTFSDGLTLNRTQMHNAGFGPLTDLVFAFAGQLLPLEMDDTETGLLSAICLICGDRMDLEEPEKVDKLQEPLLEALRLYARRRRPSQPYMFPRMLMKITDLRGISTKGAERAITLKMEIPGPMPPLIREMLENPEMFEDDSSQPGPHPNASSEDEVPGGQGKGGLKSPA
Text: as §1, §2, §3

[1] = Metabolic stability in mouse liver microsomes; format: in vitro ADME; conditions: 20 min incubation, 37° C., NADPH
Method: A solution containing 1130 μL of 100 mM sodium phosphate buffer, pH 7.4, 20 μL of a 25 mg/mL CD-1 mouse liver microsomal suspension in 100 mM sodium phosphate buffer, pH 7.4, and 830 μL of a 4 mg/mL NADPH solution in 100 mM sodium phosphate buffer, pH 7.4, was prepared in a glass test tube, mixed on a vortexer, and incubated in a shaking water bath at 37° C. for 3 min. A test compound was dissolved in 10% DMSO/90% methanol to a final concentration of 400 μM, and 20 μL was added to the above solution after the 3 min. incubation. The solution was mixed on a vortexer, and incubated at 37° C. in the shaking water bath. After 0, 5, 10 and 20 min incubation, 75 μL aliquots of the incubation solution were removed in triplicate and each aliquot was added to a 75 μL solution that contained 2 μM of an internal standard in 50% acetonitrile/50% 20 mM ZnSO4 and 20 mM NaOH in water. Samples were mixed on a vortexer, and centrifuged at 10° C. for 25 min at 3000 rpm. The supernatant was separated from the microsomal pellet and analyzed for the test compound by electrospray negative ionization using a Micromass Platform LCZ mass spectrometer equipped with a Shimadzu 10AD VP pump, and Shimadzu 10AD UP autosampler. […] Peak area ratios of the test compound to internal standard at each time point were compared to the 0 min. time point to assess metabolic stability. […]

| Metabolic stability (mouse microsomes): Difference from reference compound at 20 min. [1] | Compound | Ki (RARβ) | Ki (RARγ) |
| --- | --- | --- | --- |
| – | CCCCOc1c(\C(C)=C/C=C/C(=C/C(=O)O)C(F)(F)F)cc(C(C)C)cc1C(C)C [Example 3, (2Z,4E,6Z)-7-(2-Butoxy-3,5-diisopropylphenyl)-3-trifluoromethyl-octa-2,4,6-trienoic acid] | > 10 µM | > 10 µM |
| 29.295% | C/C(=C/C=C(F)/C(C)=C/C(=O)O)c1cc(C(C)(C)C)cc(C(C)(C)C)c1OCC(F)F [Example 1, 7-[3,5-di-tert-butyl-2-(2,2-difluoroethoxy)-phenyl]4-fluoro-3-methyl-octa-2,4,6-trienoic acid] | 6.63 µM | – |
| – | CCOc1c(\C(=C/C=C/C(C)=C/C(=O)O)C(F)(F)F)cc(C(C)(C)C)cc1C(C)(C)C [Example 5, (2E,4E,6E)-3-methyl-7-(2-ethoxy-3,5-di-tert-butylphenyl)-8,8,8-trifluoroocta-2,4,6-trienoic acid] | 7.25 µM | > 10 µM |
| 18.300% | C/C(=C/C(F)=C/C(C)=C/C(=O)O)c1cc(C(C)(C)C)cc(C(C)(C)C)c1OCC(F)F [Example 2, 7-[3,5-Di-tert-butyl-2-(2,2-difluoroethoxy)-phenyl]-5-fluoro-3-methyl-octa-2,4,6-trienoic acid] | 2.75 µM | – |
| – | CCCCOc1c(\C(C)=C/C=C/C(=C\C(=O)O)C(F)(F)F)cc(C(C)C)cc1C(C)C [Example 4, (2E,4E,6Z)-7-(2-Butoxy-3,5-diisopropylphenyl)-3-trifluoromethyl-octa-2,4,6-trienoic acid] | > 10 µM | > 10 µM |
